Data taken from ChEMBL document CHEMBL1151137, “Natural products as a source of potential cancer chemotherapeutic and chemopreventive agents” (1990).
Converted amounts (≈) assume the structure as drawn.

Experiments:
MCF7 = experiment: Cytotoxicity against human MCF7 cells; format: functional; settings: read-out: ED50 (the source's name)
A549 = experiment: Cytotoxicity against human A549 cells; format: functional; settings: read-out: ED50 (the source's name)
HT-29 = experiment: Cytotoxicity against human HT-29 cells; format: functional; settings: for EC50: Homo sapiens, HT-29, read-out: ED50 (the source's name)
[1] = Chemopreventive activity in Chinese hamster embryonic cells assessed as inhibition of benzo[a]pyrene metabolism to water soluble derivatives; format: functional, Cricetulus griseus; settings: for IC50: Cricetulus griseus, read-out: ID50 (the source's name)
[2] = Cytotoxicity against mouse 9PS cells; format: functional; settings: for EC50: Mus musculus, read-out: ED50 (the source's name)
[3] = Chemopreventive activity in Chinese hamster embryonic cells assessed as inhibition of benzo[a]pyrene metabolism at 10 to 25 ug/ml; format: functional, Cricetulus griseus
P388 [4] = experiment: In vivo antitumor activity against mouse P388 cells at 20 mg/kg relative to control; format: functional
[5] = Cytotoxicity against human 9KB cells; format: functional; settings: read-out: ED50 (the source's name)
P388 [6] = experiment: In vivo antitumor activity against mouse P388 cells at 50 mg/kg relative to control; format: functional

Compound | EC50 (MCF7) [µg/mL] | EC50 (A549) [µg/mL] | EC50 (HT-29) [µg/mL] | other results
COc1cc(C2Oc3c(OC)cc4c(=O)c5c(OC)cccc5oc4c3OC2COC(C)=O)ccc1O (centres undefined) | > 10 | 4 (≈ 7.87 µM) | 4 (≈ 7.87 µM) | –
COc1cc(C2Oc3c(OC)cc4c(=O)c5c(OC)cccc5oc4c3OC2CO)cc(OC)c1O (centres undefined) | > 10 | > 10 | > 10 | –
COc1cc(C2Oc3ccc4c(=O)c5c(O)cc(O)cc5oc4c3OC2CO)cc(OC)c1O (centres undefined) | > 10 | 3 (≈ 6.4 µM) | 0.4 (≈ 0.854 µM) | –
COc1cc2c(c3oc4c(O)cccc4c(=O)c13)C[C@H]([C@](C)(O)COC(C)=O)O2 | 2.5 (≈ 6.24 µM) | 2 (≈ 5 µM) | 0.016 (≈ 0.04 µM) | –
COc1cc(C2Oc3c(OC)cc4c(=O)c5ccccc5oc4c3OC2CO)ccc1O (centres undefined) | > 10 | 3 (≈ 6.87 µM) | 3 (≈ 6.87 µM) | –
COc1cc(C2Oc3c(OC)cc4c(=O)c5ccccc5oc4c3OC2CO)cc(OC)c1O (centres undefined) | > 10 | > 10 | > 10 | –
COc1cc(C2Oc3c(OC)cc4c(=O)c5c(OC)cccc5oc4c3OC2CO)ccc1O (centres undefined) | > 10 | > 10 | > 10 | –
COc1cc2c(c3oc4c(O)cccc4c(=O)c13)C[C@H]([C@](C)(O)CO)O2 | > 10 | > 10 | 2.3 (≈ 6.42 µM) | –
COc1ccc(-c2coc3cc(OC)cc(O)c3c2=O)cc1 [4',7-DIMETHOXY-5-HYDROXYGENISTEIN] | – | – | – | IC50 [1]: > 50 µg/mL
COc1ccc(-c2cc(=O)c3c(O)cc(O)cc3o2)cc1 [ACACETIN] | – | – | – | IC50 [1]: 15 µg/mL (≈ 52.8 µM)
CCCCCCCCCCCC[C@@H](O)[C@H]1CC[C@H]([C@H](O)CCCCC(=O)CCCCC[C@@H](O)CC2=C[C@H](C)OC2=O)O1 [ANNONACINONE] | – | 0.1 (≈ 0.168 µM) | 1 (≈ 1.68 µM) | ED50 [2]: 1 ×10⁻⁶ ug/ml
CCCCCCCCCCCC[C@@H](O)[C@H]1CC[C@H]([C@H](O)CCCC[C@H](O)CCCCC[C@@H](O)CC2=CC(C)OC2=O)O1 (some centres undefined) [ANNONACIN] | – | 0.001 (≈ 0.00168 µM) | 3 (≈ 5.03 µM) | ED50 [2]: 1 ×10⁻⁵ ug/ml
O=c1cc(-c2ccc(O)cc2)oc2cc(O)cc(O)c12 [APIGENIN] | – | – | – | IC50 [1]: 17 µg/mL (≈ 62.9 µM)
COc1ccc(-c2coc3cc(OC)cc(OC)c3c2=O)cc1 [BIOCHANIN A, DIMETHYL ETHER] | – | – | – | IC50 [1]: 50 µg/mL (≈ 160 µM)
COc1ccc(-c2coc3cc(O)cc(O)c3c2=O)cc1 [BIOCHANIN] | – | – | – | IC50 [1]: 25 µg/mL (≈ 87.9 µM); inhibition (INH) [3]: 30%
O=c1cc(-c2ccccc2)oc2cc(O)cc(O)c12 [CHRYSIN] | – | – | – | IC50 [1]: 12 µg/mL (≈ 47.2 µM)
O=c1c(-c2ccc(O)cc2)coc2cc(O)cc(O)c12 [GENISTEIN] | – | – | – | IC50 [1]: 30 µg/mL (≈ 111 µM)
COc1cccc(C/C(=N/OS(=O)(=O)O)S[C@@H]2O[C@H](CO)[C@@H](O)[C@H](O)[C@H]2O)c1 [GLUCOLIMNANTHIN] | – | – | – | inhibition (INH) [1]: 71%
CCCCCCCCCCCC[C@H](O)[C@@H]1CC[C@@H]([C@@H](O)CCCCC(=O)CCCCCC2CC(CC(C)=O)C(=O)O2)O1 (some centres undefined) [ISOANNONACINONE] | – | 0.07 (≈ 0.118 µM) | 0.009 (≈ 0.0151 µM) | EC50 [2]: 0.5 µg/mL (≈ 0.841 µM)
CCCCCCCCCCCC[C@H](O)[C@@H]1CC[C@@H]([C@@H](O)CCCCC(O)CCCCCC2CC(CC(C)=O)C(=O)O2)O1 (some centres undefined) [ISOANNONACIN] | – | 0.02 (≈ 0.0335 µM) | 0.002 (≈ 0.00335 µM) | EC50 [2]: 3 µg/mL (≈ 5.03 µM)
CC(C)c1oc(=O)cc2c1[C@@H](O)[C@H]1OC(=O)[C@@]3(C)[C@@H](O)[C@H]4O[C@H]4[C@@]2(C)[C@@H]13 [NAGILACTONE C] | – | – | – | T/C (P388 [4]): 145%
O=C1C[C@@H]2c3ccccc3O[C@H]3c4cc(O)ccc4-c4c(O)cc(O)c1c4[C@H]23 [OHIOENSIN A] | 9 (≈ 24.2 µM) | > 10 | > 10 | EC50 [5]: > 10 µg/mL; EC50 [2]: 1 µg/mL (≈ 2.69 µM)
O=C1C[C@@H]2c3ccccc3O[C@H]3c4cccc(O)c4-c4c(O)cc(O)c1c4[C@H]23 [OHIOENSIN B] | 7 (≈ 18.8 µM) | 8 (≈ 21.5 µM) | > 10 | EC50 [5]: > 10 µg/mL; EC50 [2]: 1 µg/mL (≈ 2.69 µM)
COc1cc(O)c2c3c1-c1c(O)cccc1[C@@H]1Oc4ccccc4[C@@H](CC2=O)[C@@H]31 [OHIOENSIN C] | 3 (≈ 7.76 µM) | > 10 | 4 (≈ 10.4 µM) | EC50 [5]: 10 µg/mL (≈ 25.9 µM); EC50 [2]: > 10 µg/mL
COc1cc(O)c2c3c1-c1c(ccc(O)c1O)[C@@H]1Oc4ccccc4[C@@H](CC2=O)[C@@H]31 [OHIOENSIN D] | > 10 | > 10 | > 10 | EC50 [5]: > 10 µg/mL; EC50 [2]: 1 µg/mL (≈ 2.49 µM)
COc1ccc2c(c1O)-c1c(OC)cc(O)c3c1[C@@H]1[C@H](CC3=O)c3ccccc3O[C@@H]21 [OHIOENSIN E] | > 10 | 6 (≈ 14.4 µM) | > 10 | EC50 [5]: > 10 µg/mL; EC50 [2]: 1 µg/mL (≈ 2.4 µM)
C[S+]([O-])C[C@@](C)(O)[C@H]1OC(=O)C=C2[C@@]13O[C@@H]3[C@H]1OC(=O)[C@@]3(C)[C@H]4O[C@H]4C[C@@]2(C)[C@@H]13 (some centres undefined) [PODOLACTONE C] | – | – | – | T/C (P388 [4]): 151%
CC(C)[C@H]1OC(=O)C=C2[C@@]13O[C@@H]3[C@H]1OC(=O)[C@@]3(C)C=CC[C@@]2(C)[C@@H]13 [PODOLIDE] | – | – | – | T/C (P388 [6]): 127%
COc1cc2c(c3oc4c(O)cccc4c(=O)c13)[C@@H]1OC[C@@](C)(O)[C@@H]1O2 [PSOROFEBRIN] | > 10 | > 10 | 8.5 (≈ 23.9 µM) | –
COc1cc2c(c3oc4c(O)cccc4c(=O)c13)C[C@H]([C@@]1(C)CO1)O2 [PSOROSPERMIN] | 0.012 (≈ 0.0353 µM) | 0.0016 (≈ 0.0047 µM) | – | ED50 (HT-29): >1 ×10⁻⁵ ug/ml
